Measured values reported in US20090298103A1, “Predicting hemostatic risk; dependence on plasma composition” (The University of Vermont and State Agriculture College, priority 2008, published 2009).
Like-named read-outs stand apart in the source and are kept apart here. One block for each molecule: values may come before it.

Assays:
fVIIa = biological target: T1, fVIIa (Homo sapiens, UniProt P08709); test: Factor VIIa titrations of Tf proteins in the absence of lipid; type: biochemical; conditions: in complex with fVIIa, Tf 0.1 nM, no lipid
T1 construct: Novo Nordisk (gift)
Method: FIG. 24 is a graphical view of factor VIIa titrations of recombinant Tf (rTf) 1-263, rTf 1-242 and human placental Tf (all at 0.1 nM) in the absence of lipid.
Reports of physical studies of Tf have made use of SDS-PAGE, amino acid analyses and presumed stoichiometry of binding. In a most recent review, a Tf molecular weight of 47 kDa is cited, introducing a 30% error for any experimental physical parameter regarding Tf and its interactions. Tf proteins are distinguished by functional activities in simple as well as in complex reaction systems (FIGS. 24, 25).

[1] = Light scattering measurement of Protein S depolymerization on Ca++ addition; type: physicochemical
Source text: Open squares: commercial PS and closed squares: in-house PS.
In regards to Protein S (PS) a Tf-based assay for PS in CTI-inhibited recalcified PS deficient plasma was developed. […] Dilutions of a normal plasma pool fall on this curve (open symbols). […] The convergence of plasma dilution data with the purified protein curve lends support of the preservation of natural PS quality in the material we isolate. The rate of depolymerization of Ca^++ free PS upon addition of Ca^++ using light scattering (FIG. 26B) was evaluated.

[2] = tested on: Tf-initiated thrombin formation; test: Synthetic coagulation proteome, Tf-initiated thrombin generation (prophylactic anticoagulation); type: biochemical, human
Source text: Materials—Human coagulation fVII, fX, fIX, and prothrombin (fII), were isolated from fresh frozen plasma using the methods of Bajaj et al., and were purged of traces of active enzymes. FXI was purified using the monoclonal anti-fXI antibody α-fXI-2. Human fV and AT were isolated from freshly frozen plasma. The following were provided as gifts: recombinant fVIII and recombinant Tf (residues 1-242); recombinant human fVIIa; and recombinant full-length tissue factor pathway inhibitor (TFPI). Corn trypsin inhibitor (CTI) was isolated from popcorn. The preparation of the Tf/lipid reagent was performed. 1,2-Dioleolyl-sn-Glycero-3-Phospho-L-Serine (PS) and 1,2-Dioleoyl-sn-Glycero-3-Phosphocholine (PC) were purchased from Avanti Polar Lipids, Inc (Alabaster, Ala.), and EDTA was purchased from Sigma (St Louis, Mo.). Phospholipid vesicles (PCPS) composed of 75% PC and 25% PS and were prepared.
(§1) Synthetic Coagulation Model—The procedure used is a modification of Lawson et al. [Lawson, J. H., Kalafatis, M., Stram, S., and Mann, K. G. (1994) J. Biol. Chem. 269, 23357-23366] and van't Veer et al. [van't Veer, C. and Mann, K. G. (1997) J. Biol. Chem. 272, 4367-4377]. Relipidated Tf at 5 pM final concentration was added to a mixture of fII, fV, fVII, fVIIIa, fVIII, fIX, fX, fXI, TFPI, and AT (all at mean physiologic concentrations) (43) in 20 mM HEPES/150 mM NaCl (HBS) with 2 mM CaCl2 containing 2 μM PCPS. Pharmacologic agents were incorporated into the reaction mixture prior to addition of the Tf reagent. Resupply was conducted at 20 min post Tf initiation by the addition of an equal volume of a freshly constituted, Tf free mixture containing procofactors, zymogens and inhibitors in HBS with 2 mM CaCl2 and 2 μM PCPS to an ongoing reaction. Pharmacologic agents were present in the resupply mixture at twice their final concentration.
(§2) Thrombin generation over time was measured in a chromogenic assay using Spectrozyme TH and a THERMOmax microplate reader (Molecular Devices Corp., Menlo Park, Calif.). In experiments assessing the reversible thrombin inhibitor DAPA, rates of thrombin generation were calculated by reference to a standard curve relating thrombin concentration to rates of substrate hydrolysis in the presence of relevant DAPA concentrations.
Incorporation of Anticoagulants into the Mathematical Model—FIG. 27 presents the sets of equations describing the mechanisms of action of each of the anticoagulants used in this study and FIG. 28 presents the rate constants controlling the identified bimolecular interactions and the dosing ranges recommended for prophylactic and therapeutic applications. Details of modeling the various anticoagulant interactions are described herein and in the Methods section. Prophylactic Anticoagulation—There is shown in FIGS. 30A and 30 C computational assessments and in FIGS. 30B and D empirical assessments of the efficacy of each anticoagulant in suppressing the onset of Tf-initiated thrombin formation. In both empirical and computational studies, a 5 pM Tf reagent stimulus was used and thrombin generation assessed over 20 min. Results are presented that compare thrombin generation in the absence of anticoagulant (♦) to that observed over the range of anticoagulant concentrations that drive the transition from partial to maximum suppression of thrombin formation. […]

[3] = tested on: thrombin formation after resupply; test: Synthetic coagulation proteome, resupply response (therapeutic anticoagulation); type: biochemical, human
Method: as §1, §2
Therapeutic Anticoagulation—We have previously reported that one outcome in closed model systems of Tf-initiated coagulation is the formation of a relatively stable prothrombin activating potential which responds to the introduction of a new supply of reactants with an immediate burst of thrombin production, i.e., a “resupply response” (see U.S. application Ser. No. 10/507,661). There is shown in FIGS. 32A-D and 33A-D computational (FIGS. 32A,C; FIGS. 33A,C) and representative empirical (FIGS. 32B,D; FIGS. 33B,D) assessments of the efficacy of each anticoagulant in suppressing the resupply response. Computational and empirical time courses of thrombin formation are shown for the final 5 min of the Tf-initiated process and for the resupply phase.

prothrombin = test: Western blot of prothrombin consumption during resupply in the synthetic coagulation proteome; type: biochemical, human
Method: Gel Electrophoresis and Western Blotting—Resupply time course samples were quenched into an equal volume of 50 mM EDTA, 50 μM FPRck in HBS and 4 μl aliquots (potentially containing 100 ng prothrombin) were made 2% in SDS and 2% in β-mercaptoethanol and analyzed by SDS-PAGE. Protein species were separated on 4 to 12% linear gradient gel and transferred to nitrocellulose membranes (Bio-Rad Laboratories Inc., US). FII and its activation products were probed for using a polyclonal burro anti-human prethrombin 1 antibody. Reactive bands were detected using goat anti-equine horseradish peroxidase conjugated IgG (Southern Biotechnology, Birmingham Ala.) with a chemiluminescence reagent (Perkin Elmer, Boston Mass.) and Kodak X-OMat film.
Prothrombin Consumption during Resupply—In FIGS. 32B, 32D and 33D, the estimates of UFH, Fpx and DAPA efficacy potentially represent a combination of 2 modes of anticoagulant action: their relative reactivity toward preformed catalytic complexes and their direct inhibition of thrombin formed during the reaction. […]

[4] = biological target: thrombin and meizotirombin (mIIa); conditions: cited from earlier work
[5] = tested on: contact pathway inhibited blood; test: Contact pathway inhibited whole blood, Tf-initiated TAT formation; type: biochemical, human; conditions: increasing concentrations incorporated into blood prior to Tf (5 pM)
Source text: (§3) Whole Blood Model—The protocol used is a modification of Rand et al. [Orfeo, T., Butenas, S., Brummel-Ziedins, K. E., and Mann, K. G. (2005) J. Biol. Chem. 280, 42887-42896; Rand, M. D., Lock, J. B., van't Veer, C., Gaffney, D. P., and Mann, K. G. (1996) Blood 88, 3432-3445]. A healthy donor was recruited, advised according to a protocol approved by the University of Vermont Human Studies Committee and their consent was obtained. […] Blood was drawn by venipuncture and immediately delivered into the reagent-loaded tubes. In general, 2 sets of aliquots of CTI treated blood were initiated with […] Tf reagent. One set was quenched at 1 min intervals while the other was incubated for 20 min. […] This resupply blood contained CTI alone (0.1 mg/ml), CTI+2 uM fondaparinux or CTI+320 nM C921-78. After the experiment, the tubes are centrifuged and the supernatants are aliquoted and analyzed for TAT levels. A subset of tubes containing either Fpx or C921-78 were initiated with 5 pM Tf reagent, quenched at 20 min and analyzed for TAT levels.
(§4) Anticoagulant Efficacy in Whole Blood—To test whether results from the computational and proteome based analyses would extrapolate to a more complex empirical model, the efficacy of anticoagulants in suppressing thrombin generation was addressed in contact pathway inhibited blood in both Tf-initiated and resupply regimens. […]

[6] = tested on: contact pathway inhibited blood; test: Contact pathway inhibited whole blood, resupply; type: biochemical, human; conditions: 160 nM C921-78
Source text: as §3, §4

fXa = fXa (Homo sapiens, UniProt P00742); conditions: cited from earlier work
fXa in prothrombinase = fXa in prothrombinase (Homo sapiens, UniProt P00742); conditions: cited from earlier work
thrombin generation = test: Thrombin generation in reconstituted coagulation platelet proteome; type: biochemical, human
Source text: FIG. 25 is a graphical view of thrombin generation in synthetic plasma with platelets (2×10^8/ml). Notice monocyte in situ and monocyte purified.

T1 sequence (P08709 213-466 limits assumed, one chain of several): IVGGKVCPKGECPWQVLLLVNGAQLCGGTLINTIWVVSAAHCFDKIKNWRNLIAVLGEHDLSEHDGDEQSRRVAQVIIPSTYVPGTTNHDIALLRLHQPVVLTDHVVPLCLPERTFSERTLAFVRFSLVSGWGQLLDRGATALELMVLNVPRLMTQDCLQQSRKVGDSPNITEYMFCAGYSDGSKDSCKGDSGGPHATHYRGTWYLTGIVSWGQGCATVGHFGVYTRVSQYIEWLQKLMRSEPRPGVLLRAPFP
T1 sequence (P08709 61-212 partner limits assumed, one chain of several): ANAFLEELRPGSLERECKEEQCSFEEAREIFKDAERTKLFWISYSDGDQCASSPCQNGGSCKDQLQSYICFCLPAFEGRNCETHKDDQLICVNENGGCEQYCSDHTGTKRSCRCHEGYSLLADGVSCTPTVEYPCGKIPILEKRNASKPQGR
Chain of fXa in prothrombinase (P00742 235-488 limits assumed): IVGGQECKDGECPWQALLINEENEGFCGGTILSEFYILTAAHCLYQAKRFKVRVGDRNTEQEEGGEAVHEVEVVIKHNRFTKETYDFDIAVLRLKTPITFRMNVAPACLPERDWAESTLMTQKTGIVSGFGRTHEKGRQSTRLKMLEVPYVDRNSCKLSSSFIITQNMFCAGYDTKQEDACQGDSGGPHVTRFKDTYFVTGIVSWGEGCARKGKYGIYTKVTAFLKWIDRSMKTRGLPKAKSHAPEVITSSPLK
Chain of fXa in prothrombinase (P00742 41-179 partner limits assumed): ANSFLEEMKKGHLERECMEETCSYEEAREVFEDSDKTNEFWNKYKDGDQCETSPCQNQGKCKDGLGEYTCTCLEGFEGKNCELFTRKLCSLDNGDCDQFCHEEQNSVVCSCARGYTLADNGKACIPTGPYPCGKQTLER
Chain of fXa in prothrombinase (P12259 29-737 partner limits assumed): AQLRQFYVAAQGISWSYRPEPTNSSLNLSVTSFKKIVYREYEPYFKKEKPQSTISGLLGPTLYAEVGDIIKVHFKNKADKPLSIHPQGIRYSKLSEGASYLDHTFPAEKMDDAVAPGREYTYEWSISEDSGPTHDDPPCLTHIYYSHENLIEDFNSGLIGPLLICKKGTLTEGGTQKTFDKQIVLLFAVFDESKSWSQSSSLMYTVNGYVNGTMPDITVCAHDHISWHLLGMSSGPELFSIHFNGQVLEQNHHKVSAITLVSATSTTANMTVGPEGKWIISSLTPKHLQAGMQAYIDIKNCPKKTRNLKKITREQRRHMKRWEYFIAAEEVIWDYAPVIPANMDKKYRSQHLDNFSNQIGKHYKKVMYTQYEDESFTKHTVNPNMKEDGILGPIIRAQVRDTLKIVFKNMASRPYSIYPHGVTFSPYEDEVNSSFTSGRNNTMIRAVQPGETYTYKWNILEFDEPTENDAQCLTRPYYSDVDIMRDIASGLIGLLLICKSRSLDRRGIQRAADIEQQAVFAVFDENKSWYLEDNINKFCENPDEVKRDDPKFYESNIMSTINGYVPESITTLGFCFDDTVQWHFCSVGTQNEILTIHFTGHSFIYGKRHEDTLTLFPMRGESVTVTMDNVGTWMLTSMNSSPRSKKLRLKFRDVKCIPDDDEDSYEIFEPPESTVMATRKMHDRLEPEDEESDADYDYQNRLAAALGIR
Chain of fXa in prothrombinase (P12259 1574-2224 partner limits assumed): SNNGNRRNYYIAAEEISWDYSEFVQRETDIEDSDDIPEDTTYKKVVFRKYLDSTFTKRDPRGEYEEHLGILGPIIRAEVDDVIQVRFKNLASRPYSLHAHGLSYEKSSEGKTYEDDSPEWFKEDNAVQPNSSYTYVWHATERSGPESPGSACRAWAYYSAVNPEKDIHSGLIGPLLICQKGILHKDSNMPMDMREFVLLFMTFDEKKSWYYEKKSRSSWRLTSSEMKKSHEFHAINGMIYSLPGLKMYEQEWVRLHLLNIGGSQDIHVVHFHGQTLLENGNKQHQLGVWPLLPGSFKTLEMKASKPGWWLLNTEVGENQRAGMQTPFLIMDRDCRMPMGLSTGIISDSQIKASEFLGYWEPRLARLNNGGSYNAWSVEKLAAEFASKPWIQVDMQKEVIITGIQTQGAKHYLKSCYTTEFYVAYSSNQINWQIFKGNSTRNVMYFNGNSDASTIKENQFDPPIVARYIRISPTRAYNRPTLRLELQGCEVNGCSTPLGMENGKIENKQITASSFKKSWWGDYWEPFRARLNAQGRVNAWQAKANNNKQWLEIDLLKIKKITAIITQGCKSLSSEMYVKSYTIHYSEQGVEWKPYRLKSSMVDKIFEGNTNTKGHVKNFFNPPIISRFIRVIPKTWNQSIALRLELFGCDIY
Chain of fXa (P00742 235-488 limits assumed): as the sequence (P00742 235-488 limits assumed) above
Chain of fXa (P00742 41-179 partner limits assumed): as the sequence (P00742 41-179 partner limits assumed) above

Kd compared with the recombinant proteins (fVIIa): lower Kd
Molecule: placental Tf: natural human placental tissue factor isolated by monoclonal antibody procedure
Vmax compared with the recombinant proteins (fVIIa): higher Vmax

Molecule: PS: purified in-house Protein S preparation
half time of depolymerization of Ca++ free PS upon addition of Ca++ ([1]; 25° C.): approximately 100 s

Molecule: CCC1CCN(C(=O)C(CCCNC(=N)N)NS(=O)(=O)c2cccc3c(N(C)C)cccc23)CC1 (stereo not shown) [DAPA, dansylarginine-N-[3-ethyl-1,5-pentanediyl]amide]
effect on prothrombin consumption ([2]; 20 μM DAPA): only attenuating the maximum rate of prothrombin consumption | total prothrombin consumption ([2]; 100 μM DAPA): ~20 nM | difference in rate or maximum final level of IIa=DAPA between the 2 DAPA concentrations ([3]; 10 μM vs 100 μM DAPA): No substantial difference in rate or maximum final level | blocking prothrombin consumption in the resupply format (prothrombin; DAPA): completely ineffective | Kd ([4]; thrombin and meizothrombin): 20 to 40 nM | Kd ([4]; value used in the model (FIG. 27)): 40 nM

Molecule: commercial preparation of PS (ERL): commercial preparation of Protein S (ERL)
depolymerization behavior ([1]; commercial preparation (ERL)): does not show this depolymerization behavior

Molecule: N=C(N)NCCCC(NS(=O)(=O)c1ccccc1)C(=O)NCC(=O)NC(CCCNC(=N)N)C(=O)c1nccs1 [C921-78, Benzenesulfonyl-D-Arg-Gly-Arg-ketothiazole]
displacing the onset of thrombin generation ([2]; 1 nM C921-78): somewhat more effective than computationally predicted | effects on maximum rate and concentrations of IIa ([2]; 1 nM C921-78): minimal effects | thrombin generation ([2]; 10 nM C921-78): completely suppressed | maximum thrombin levels ([3]; 70 nM C921-78): 35 nM | time of maximum thrombin level post resupply ([3]; 70 nM C921-78): 4 min | maximum thrombin levels ([3]; 100 nM C921-78): ~25 nM | time of maximum thrombin level post resupply ([3]; 100 nM C921-78): 10 min | delay of thrombin generation ([3]; 160 nM C921-78): 11 min | maximum thrombin levels ([3]; 160 nM C921-78): 14 nM | prothrombin consumption at 15 min (prothrombin; 160 nM C921-78, densitometric analyses): ~10% | TAT levels at 20 min [5]: decreases in TAT levels | prothrombin consumption (immunoblots) [6]: minimal | Kd (fXa): ~0.014 nM | Kd (fXa in prothrombinase): 0.022 nM

B1: monocyte Tf: tissue factor from THP-1 monocytes after stimulation with LPS (protein, UniProt P13726 33-295, looked up)
Tissue factor: SGTTNTVAAYNLTWKSTNFKTILEWEPKPVNQVYTVQISTKSGDWKSKCFYTTDTECDLTDEIVKDVKQTYLARVFSYPAGNVESTGSAGEPLYENSPEFTPYLETNLGQPTIQSFEQVGTKVNVTVEDERTLVRRNNTFLSLRDVFGKDLIYTLYYWKSSSSGKKTAKTNTNEFLIDVDKGENYCFSVQAVIPSRTVNRKSTDSPVECMGQEKGEFREIFYIIGAVVFVVIILVIILAISLHKCRKAGVGQSWKENSPLNVS
activity relative to monocyte Tf reconstituted on synthetic membranes (thrombin generation): ~400 ×
